From patent US20250042872A1, “NOVEL SALT OF 1-SULFONYL PYRROLE DERIVATIVE, METHOD FOR PREPARING SAME, AND PHARMACEUTICAL COMPOSITION INCLUDING SAME” (ILDONG PHARMACEUTICAL CO., LTD., priority 2021, published 2025)
Converted amounts (≈) assume the structure as drawn. Counter-ions that a name gives are not always drawn. Like-named read-outs stand apart in the source and are kept apart here.

What was measured:
Type in all cases: physicochemical
[1] = Evaluation of solubility in biorelevant media (water, SGF, FaSSIF, FeSSIF), HPLC; details: for Solubility-1 h Concentration / Solubility-24 h Concentration / solubility at 1 h / solubility at 24 h: 37° C.; for solubility at 1 h / solubility at 24 h: 37 °C, thermodynamic from solid; for solubility at 1 h: read-out: Solubility-1 h Concentration; for solubility at 24 h: read-out: Solubility-24 h Concentration
Protocol: Solubility in biorelevant media, such as SGF, FeSSIF, and FaSSIF was confirmed with respect to the free base and the hydrochloride salt, succinate salt and L-tartrate salt of 1-(5-(2-fluorophenyl)-4-methoxy-1-((6-methoxypyridin-3-yl)sulfonyl)-1H-pyrrole-3-yl)-N-methylmethanamine that was confirmed through the salt screening analysis result.
Buffers for the biorelevant media were prepared as follows.
Water: Laboratory Milli-Q purified water.
SGF (Stimulated Gastric Fluid): 2.0 g of sodium chloride and 7 mL of hydrochloric acid dissolved in 1000 mL of water were used.
FaSSIF (Fasted State Simulated Intestinal Fluid): A commercial product purchased from Bio-Relevant Company and manufactured according to instructions was used.
FeSSIF (Fed State Simulated Intestinal Fluid): A commercial product purchased from Bio-Relevant Company and prepared according to instructions was used.
For the experiment, about 10 mg of a compound was weighed into each glass vial and then added with 1 mL of a medium (final concentration of 10 mg/mL). Then, the sample was continuously stirred in a magnetic stirrer at 37° C. at a speed of 200 rpm. After stirring for 1 hour and 24 hours, 0.5 mL of the sample solution was transferred to a 1.5 mL centrifuge tube and centrifuged at 12,000 rpm for 5 minutes. The supernatant was diluted with suitable methanol and analyzed by HPLC.
The free acid was selected as a standard sample to quantify the solubility, and about 10 mg of the free acid was weighed into a 25 mL flask and dissolved in methanol to the […].

[2] = Evaluation of drug stability under stress conditions (high temperature open condition 60° C.), XRPD and HPLC; details: 60° C. open; for HPLC peak RT 10.063 min, RRT 1.00 (main peak): in %; for stability under harsh conditions (in words): up to week 2
Protocol: 10 mg and 40 mg of the free base and the hydrochloride salt of 1-(5-(2-fluorophenyl)-4-methoxy-1-((6-methoxypyridin-3-yl)sulfonyl)-1H-pyrrole-3-yl)-N-methylmethanamine were weighed into each vial and stored under stress conditions to investigate stability.
The stress conditions are as follows:
High temperature open condition: 60° C.;
The bottle neck of the vial was wrapped with aluminum foil with pinholes to avoid contamination, and the samples were analyzed by XRPD and HPLC at the onset (day 0), week 1 and week 2.

[3] = Measurement of hygroscopicity by dynamic vapor sorption (DVS); details: FIGS. 22 and 23
Protocol: Using DVS intrinsic manufactured by SMS Co., Ltd, about 20 mg of the sample was tested for water sorption/desorption profiles at 25° C. under a 0%˜95%˜0% relative humidity (RH) cycle using the following parameters. • Temperature: T=25° C. • Equilibrium: dm/dt: 0.01%/min. • Range of RH (%) measurement step: 0%˜95%˜0%; RH(%) measurement step: 5%
Using the dynamic vapor sorption (DVS) test method described above, the hygroscopicity was measured for the hydrochloride salt prepared in Example 1 and the L-tartrate salt prepared in Example 8, and the results thereof were shown in FIGS. 22 and 23.

[4] = SGF, simulated gastric fluid, SGF

| SMILES | Solubility-1 h Concentration ([1]; FaSSIF) | Solubility-24 h Concentration ([1]; FaSSIF) | Assay % ([2]; onset (day 0)) | stability under harsh conditions (in words) [2] | Assay % ([2]; week 1) | hygroscopicity (in words) [3] | solubility at 1 h ([1]; FeSSIF, fessif, FeSSIF) | solubility at 24 h ([1]; FeSSIF, fessif, FeSSIF) | solubility at 1 h [1, 4] | solubility at 24 h [1, 4] | solubility at 1 h ([1]; water, water, water) | solubility at 24 h ([1]; water, water, water) | solubility at 1 h ([1]; FaSSIF, fassif, FaSSIF) | solubility at 24 h ([1]; FaSSIF, fassif, FaSSIF) | further results |
| --- | --- | --- | --- | --- | --- | --- | --- | --- | --- | --- | --- | --- | --- | --- | --- |
| CNCc1cn(S(=O)(=O)c2ccc(OC)nc2)c(-c2ccccc2F)c1OC [Free base, 1-(5-(2-fluorophenyl)-4-methoxy-1-((6-methoxypyridin-3-yl)sulfonyl)-1H-pyrrole-3-yl)-N-methylmethanamine] | 1.44 mg/mL (≈ 3.55 mM) | 1.44 mg/mL (≈ 3.55 mM) | 100.00% | high impurity content | 87.44% |  |  |  |  |  |  |  |  |  | Solubility-1 h Concentration ([1]; FeSSIF): 4.57 mg/mL (≈ 11.3 mM); Solubility-24 h Concentration ([1]; FeSSIF): 4.77 mg/mL (≈ 11.8 mM); Solubility-1 h Concentration ([1]; SGF): >10 mg/mL; Solubility-24 h Concentration ([1]; SGF): >10 mg/mL; Solubility-1 h Concentration ([1]; water): 8.56 mg/mL (≈ 21.1 mM); Solubility-24 h Concentration ([1]; water): 8.63 mg/mL (≈ 21.3 mM); HPLC peak RRT 1.07 ([2]; onset (day 0)): 0.66%; HPLC peak RT 10.063 min, RRT 1.00 (main peak) ([2]; onset (day 0)): 93.15; HPLC peak RRT 1.07 ([2]; week 1): 0.57%; HPLC peak RT 6.797 min, RRT 0.68 ([2]; week 1): 0.43%; HPLC peak RT 7.563 min, RRT 0.75 ([2]; week 1): 1%; HPLC peak RT 10.277 min, RRT 1.02 ([2]; week 1): 9.95%; HPLC peak RRT 0.93 ([2]; week 2): 0.14%; HPLC peak RT 10.063 min, RRT 1.00 (main peak) ([2]; week 2): 65.00 |
| CNCc1cn(S(=O)(=O)c2ccc(OC)nc2)c(-c2ccccc2F)c1OC [Hydrochloride salt, hydrochloride salt of 1-(5-(2-fluorophenyl)-4-methoxy-1-((6-methoxypyridin-3-yl)sulfonyl)-1H-pyrrole-3-yl)-N-methylmethanamine] | 9.71 mg/mL | 5.92 mg/mL | 100.50% | excellent stability | 106.14% | very low hygroscopicity | 4.45 mg/mL | 4.37 mg/mL | > 10 mg/mL | > 10 mg/mL | > 10 mg/mL | > 10 mg/mL |  |  | solubility in FaSSIF (in words) ([1]; fasted state simulated intestinal fluid): very good |
| CNCc1cn(S(=O)(=O)c2ccc(OC)nc2)c(-c2ccccc2F)c1OC.O=C(O)C(O)C(O)C(=O)O [L-tartrate salt, L-tartrate salt of 1-(5-(2-fluorophenyl)-4-methoxy-1-((6-methoxypyridin-3-yl)sulfonyl)-1H-pyrrole-3-yl)-N-methylmethanamine] |  |  |  |  |  | very low hygroscopicity | 4.55 mg/mL | 4.54 mg/mL | > 10 mg/mL | > 10 mg/mL | > 10 mg/mL | > 10 mg/mL | 8.16 mg/mL | > 10 mg/mL |  |
| CNCc1cn(S(=O)(=O)c2ccc(OC)nc2)c(-c2ccccc2F)c1OC.O=C(O)CCC(=O)O [Succinate salt, succinate salt of 1-(5-(2-fluorophenyl)-4-methoxy-1-((6-methoxypyridin-3-yl)sulfonyl)-1H-pyrrole-3-yl)-N-methylmethanamine] |  |  |  |  |  |  | 4.78 mg/mL | 4.72 mg/mL | > 10 mg/mL | > 10 mg/mL | > 10 mg/mL | > 10 mg/mL | 8.1 mg/mL | > 10 mg/mL |  |
